# Experimental data published in patent publication US6365605B1, “Substituted hydrochromenopyrroles” (Les Laboratoires Servier, priority 1997, dated 2002).
# Biological target: T1, D3 receptors (expressed in CHO cells) (Homo sapiens, UniProt P35462)
# T1 construct: expressed in transfected cells
# Assay: In vitro measurement of the affinity to D2 and D3 receptors, [125I]-iodosulpiride radioligand, membrane preparations
# Format: binding
# Conditions: difference of pKi, D3 vs D2 receptors expressed in CHO cells
# Method: The affinity of the compounds of the invention to D2 and D3 receptors (expressed independently and in a stable manner in CHO cells) was determined with membrane preparations using [^125I]-iodosulpiride as radioligand (Sokoloff et al., quoted reference). The results are expressed as pKi.
# T1 sequence (P35462 whole entry): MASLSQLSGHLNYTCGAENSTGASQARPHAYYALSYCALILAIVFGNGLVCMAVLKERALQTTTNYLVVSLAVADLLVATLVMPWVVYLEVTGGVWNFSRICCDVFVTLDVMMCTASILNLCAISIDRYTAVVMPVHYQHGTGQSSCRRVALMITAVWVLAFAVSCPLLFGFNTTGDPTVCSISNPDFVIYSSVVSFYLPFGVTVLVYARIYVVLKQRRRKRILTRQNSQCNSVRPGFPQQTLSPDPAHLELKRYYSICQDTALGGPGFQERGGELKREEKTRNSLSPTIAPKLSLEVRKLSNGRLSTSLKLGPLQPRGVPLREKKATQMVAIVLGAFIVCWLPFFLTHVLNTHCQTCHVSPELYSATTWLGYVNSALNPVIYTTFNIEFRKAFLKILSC
smiles,measurement,value
"CC(=O)Nc1ccc(CCN2CC3COc4ccc(C#N)cc4C3C2)cc1.Cl (stereo not shown) [Example 4, (3aα,9bβ)-2-[2-(4-Acetylaminophenyl)ethyl]-8-cyano-1,2,3,3a,4,9b-hexahydrochromeno[3,4-c]pyrrole hydrochloride]",selectivity for D3 receptors compared with D2 receptors,> 1.5 log
